For experiment [1], the target named is ErbB2 WT (Homo sapiens (Human), UniProt P04626). Nature of the experiment: ErbB Enzyme Assay (HTRF KinEASE-TK), Assay 2. Format: biochemical. On the technique in general: In TR-FRET formats the signal depends on donor and acceptor labels being close together.
Experiment [2] concerns the target ErbB2 with Exon 20 YVMA insertion (HER2-YVMA) (Homo sapiens (Human), UniProt P04626, INS775YVMA). Nature of the experiment: Cellular Phosphorylation Assay, Assay 4 (constitutive ErbB2 phosphorylation, NIH 3T3 cells). Format: cell-based.
The target of experiment [3] is EGFR (Homo sapiens (Human), UniProt P00533). Nature of the experiment: ErbB Enzyme Assay (HTRF KinEASE-TK), Assay 3. Format: biochemical.
Experiment [4] deals with EGFR wild type (EGFR WT) (Homo sapiens (Human), UniProt P00533). Nature of the experiment: Cellular Phosphorylation Assay, Assay 5 (EGF-stimulated EGFR phosphorylation, NIH 3T3 cells). Format: cell-based.
The mark [5] stands for this setting: EGF-stimulated EGFR WT phosphorylation.
The mark [6] stands for this setting: cellular ErbB2 YVMA phosphorylation.
The mark [7] stands for this setting: cellular EGFR WT phosphorylation, EGF-stimulated.

The results in this text go back to patent publication US12447153B2, “HER2 mutation inhibitors” (Array BioPharma Inc., priority 2021, dated 2025).

Usually IC50 stands for the concentration needed to halve the response being measured. High values mean weaker potency in that assay, low ones greater potency in that assay.

Bounds are passed on as bounds.

Chain of EGFR (P00533 25-1210): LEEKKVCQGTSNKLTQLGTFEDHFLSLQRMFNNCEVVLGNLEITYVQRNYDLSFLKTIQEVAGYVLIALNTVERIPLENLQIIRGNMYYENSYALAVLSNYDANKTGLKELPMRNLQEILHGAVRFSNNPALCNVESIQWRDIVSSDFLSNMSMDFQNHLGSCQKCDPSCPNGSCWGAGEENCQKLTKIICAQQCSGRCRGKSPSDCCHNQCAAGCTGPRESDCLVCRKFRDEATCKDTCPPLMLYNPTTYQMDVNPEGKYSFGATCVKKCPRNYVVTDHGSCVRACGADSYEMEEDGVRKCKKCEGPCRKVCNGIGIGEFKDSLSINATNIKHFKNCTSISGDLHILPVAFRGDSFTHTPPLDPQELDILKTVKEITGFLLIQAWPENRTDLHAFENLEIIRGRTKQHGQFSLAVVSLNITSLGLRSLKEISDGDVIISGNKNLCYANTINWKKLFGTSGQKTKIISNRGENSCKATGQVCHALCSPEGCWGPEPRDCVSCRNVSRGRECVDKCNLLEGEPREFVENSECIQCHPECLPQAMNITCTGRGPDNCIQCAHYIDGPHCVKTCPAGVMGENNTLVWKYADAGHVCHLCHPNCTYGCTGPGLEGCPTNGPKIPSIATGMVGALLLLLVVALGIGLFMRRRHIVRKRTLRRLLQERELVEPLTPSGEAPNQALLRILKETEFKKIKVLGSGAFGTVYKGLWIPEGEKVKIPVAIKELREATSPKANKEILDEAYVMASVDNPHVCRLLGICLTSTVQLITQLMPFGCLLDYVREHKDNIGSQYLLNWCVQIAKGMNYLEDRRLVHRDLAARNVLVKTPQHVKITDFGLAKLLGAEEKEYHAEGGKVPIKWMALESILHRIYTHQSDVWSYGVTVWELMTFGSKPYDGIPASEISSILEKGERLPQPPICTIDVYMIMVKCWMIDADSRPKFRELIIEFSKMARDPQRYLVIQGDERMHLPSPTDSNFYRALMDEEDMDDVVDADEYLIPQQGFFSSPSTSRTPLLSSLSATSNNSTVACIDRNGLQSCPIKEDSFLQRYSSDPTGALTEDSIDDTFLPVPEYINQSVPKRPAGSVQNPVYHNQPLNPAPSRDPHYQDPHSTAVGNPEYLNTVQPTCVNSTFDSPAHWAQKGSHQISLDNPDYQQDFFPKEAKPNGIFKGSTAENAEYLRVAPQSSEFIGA
Chain of EGFR wild type (EGFR WT) (P00533 25-1210): as above
Chain of ErbB2 WT (P04626 23-1255): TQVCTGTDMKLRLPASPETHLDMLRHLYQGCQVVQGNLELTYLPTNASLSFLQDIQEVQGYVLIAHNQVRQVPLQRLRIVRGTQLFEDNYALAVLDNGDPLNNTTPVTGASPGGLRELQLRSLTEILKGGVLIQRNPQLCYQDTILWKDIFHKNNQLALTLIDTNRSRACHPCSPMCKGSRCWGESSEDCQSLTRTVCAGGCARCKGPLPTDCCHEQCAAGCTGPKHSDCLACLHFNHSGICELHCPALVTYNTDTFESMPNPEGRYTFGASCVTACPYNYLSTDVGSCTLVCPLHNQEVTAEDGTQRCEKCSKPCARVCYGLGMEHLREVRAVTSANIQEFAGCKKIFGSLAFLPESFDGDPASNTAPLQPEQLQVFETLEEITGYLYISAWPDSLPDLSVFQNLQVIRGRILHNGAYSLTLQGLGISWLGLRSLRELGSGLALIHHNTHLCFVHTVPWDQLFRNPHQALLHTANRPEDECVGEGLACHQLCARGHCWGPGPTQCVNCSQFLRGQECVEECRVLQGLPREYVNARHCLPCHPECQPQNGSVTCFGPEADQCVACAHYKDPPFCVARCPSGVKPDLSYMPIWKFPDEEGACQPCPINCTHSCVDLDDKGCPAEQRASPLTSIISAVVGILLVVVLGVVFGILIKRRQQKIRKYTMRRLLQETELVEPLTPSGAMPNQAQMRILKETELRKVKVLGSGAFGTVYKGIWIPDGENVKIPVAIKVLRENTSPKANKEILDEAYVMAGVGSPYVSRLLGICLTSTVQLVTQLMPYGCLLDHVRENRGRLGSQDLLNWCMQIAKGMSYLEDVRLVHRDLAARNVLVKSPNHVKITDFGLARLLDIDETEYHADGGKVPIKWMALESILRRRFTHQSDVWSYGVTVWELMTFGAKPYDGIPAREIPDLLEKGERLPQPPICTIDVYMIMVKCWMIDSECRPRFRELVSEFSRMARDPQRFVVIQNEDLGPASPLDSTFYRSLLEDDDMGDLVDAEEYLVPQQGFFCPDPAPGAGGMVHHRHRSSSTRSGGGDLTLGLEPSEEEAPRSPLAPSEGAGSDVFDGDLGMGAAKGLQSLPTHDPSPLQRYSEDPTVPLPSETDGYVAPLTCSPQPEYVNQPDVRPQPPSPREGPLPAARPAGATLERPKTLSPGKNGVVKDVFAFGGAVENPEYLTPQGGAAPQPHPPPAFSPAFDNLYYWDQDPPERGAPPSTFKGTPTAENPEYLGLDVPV
Chain of ErbB2 with Exon 20 YVMA insertion (HER2-YVMA) (P04626 other isoform, or with tags, fused parts or gaps ins YVMA behind 775): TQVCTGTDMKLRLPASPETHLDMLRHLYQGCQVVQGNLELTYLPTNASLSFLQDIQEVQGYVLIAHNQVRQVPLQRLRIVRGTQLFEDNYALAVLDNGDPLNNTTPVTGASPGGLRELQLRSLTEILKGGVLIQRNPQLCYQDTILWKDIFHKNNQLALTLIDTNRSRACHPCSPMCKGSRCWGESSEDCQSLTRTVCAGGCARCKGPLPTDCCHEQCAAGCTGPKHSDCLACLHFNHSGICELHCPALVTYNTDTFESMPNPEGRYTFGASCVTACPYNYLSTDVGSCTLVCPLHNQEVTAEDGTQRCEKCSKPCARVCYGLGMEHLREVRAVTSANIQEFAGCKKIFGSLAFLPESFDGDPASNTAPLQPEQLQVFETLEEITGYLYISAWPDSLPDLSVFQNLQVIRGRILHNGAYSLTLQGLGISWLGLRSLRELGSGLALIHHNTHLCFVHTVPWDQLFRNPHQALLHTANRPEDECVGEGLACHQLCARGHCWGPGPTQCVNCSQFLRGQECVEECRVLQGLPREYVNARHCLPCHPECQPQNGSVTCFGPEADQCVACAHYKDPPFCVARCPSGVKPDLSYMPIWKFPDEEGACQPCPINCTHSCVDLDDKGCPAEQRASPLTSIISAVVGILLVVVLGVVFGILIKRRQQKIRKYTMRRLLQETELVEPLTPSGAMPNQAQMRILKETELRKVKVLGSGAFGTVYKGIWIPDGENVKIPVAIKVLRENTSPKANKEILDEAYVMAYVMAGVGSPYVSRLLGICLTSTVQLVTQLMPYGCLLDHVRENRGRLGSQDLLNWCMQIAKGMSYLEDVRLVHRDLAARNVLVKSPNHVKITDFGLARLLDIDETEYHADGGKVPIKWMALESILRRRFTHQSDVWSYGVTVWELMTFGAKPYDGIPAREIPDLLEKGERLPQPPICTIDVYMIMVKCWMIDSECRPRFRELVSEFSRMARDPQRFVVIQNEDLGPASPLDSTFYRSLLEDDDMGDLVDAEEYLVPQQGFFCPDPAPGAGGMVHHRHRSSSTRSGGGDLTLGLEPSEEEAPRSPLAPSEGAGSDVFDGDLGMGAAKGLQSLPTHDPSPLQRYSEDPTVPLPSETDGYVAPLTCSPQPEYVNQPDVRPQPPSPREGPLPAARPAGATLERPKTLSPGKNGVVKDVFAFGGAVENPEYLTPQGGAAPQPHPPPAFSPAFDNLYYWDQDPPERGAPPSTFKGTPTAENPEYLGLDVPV

Take `CC#CC(=O)N1CCN(c2ccc3ncnc(Nc4ccc(Oc5ccn6ncnc6c5)c(Cl)c4F)c3n2)C[C@@H]1C(F)(F)F` [Example 183, (R)-1-(4-(4-((4-([1,2,4]triazolo[1,5-a]pyridin-7-yloxy)-3-chloro-2-fluorophenyl)amino)pyrido[3,2-d]pyrimidin-6-yl)-2-(trifluoromethyl)piperazin-1-yl)but-2-yn-1-one]: the IC50 is 6.2 nM in experiment [1] (ErbB2 WT enzyme), 4.4 nM in experiment [2] (ErbB2 YVMA phosphorylation), 73.3 nM in experiment [3] (EGFR enzyme) and 79.3 nM in experiment [4] (setting [5]).
With `C=CC(=O)N1CC(Cc2ccc3ncnc(Nc4ccc(Oc5ccn6ncnc6c5)c(C)c4F)c3n2)C1` [Example 298], the half-inhibitory concentration (IC50) in experiment [1] (ErbB2 WT enzyme assay) worked out at 36.5 nM; in experiment [2] (setting [6]), 29.9 nM; in experiment [3] (EGFR enzyme assay), 255 nM; in experiment [4] (setting [7]), 902 nM.
The matching figures for `C=CC(=O)N1CC2CCC(C1)N2c1ccc2ncnc(Nc3ccc(Oc4ccn5ncnc5c4)c(Cl)c3F)c2n1` [Example 445]: 4.7 nM, 5.7 nM, 33.6 nM and 60.1 nM.
As to `C=CC(=O)N1CCCCC(c2ccc3ncnc(Nc4ccc(Oc5ccn6ncnc6c5)c(C)c4)c3n2)C1` (stereo not shown) [Example 204, 1-(3-(4-((4-([1,2,4]triazolo[1,5-a]pyridin-7-yloxy)-3-methylphenyl)amino)pyrido[3,2-d]pyrimidin-6-yl)azepan-1-yl)prop-2-en-1-one], the IC50 in experiment [1] (ErbB2 WT enzyme) came out at 13.2 nM; in experiment [2] (ErbB2 YVMA phosphorylation) it was 20.8 nM; in experiment [3] (EGFR enzyme), 900 nM; in experiment [4] (setting [5]), 2940 nM.
`C=CC(=O)N1C[C@@H]2C[C@H]1CN2c1ccc2ncnc(Nc3ccc(Oc4ccn5ncnc5c4)c(Cl)c3F)c2n1` [Example 93, 1-((1S,4S)-5-(4-((4-([1,2,4]triazolo[1,5-a]pyridin-7-yloxy)-3-chloro-2-fluorophenyl)amino)pyrido[3,2-d]pyrimidin-6-yl)-2,5-diazabicyclo[2.2.1]heptan-2-yl)prop-2-en-1-one]: the half-inhibitory concentration (IC50) in experiment [1] (ErbB2 WT enzyme) came to 12.6 nM; in experiment [2] (ErbB2 YVMA phosphorylation), 3.7 nM; in experiment [3] (EGFR enzyme), 137 nM; in experiment [4] (setting [5]), 53.5 nM.
The like results for `C=CC(=O)N1CC[C@@H]2C[C@@H](c3ccc4ncnc(Nc5cc(C)c(Oc6ccn7ncnc7c6)cc5F)c4n3)C[C@@H]21` (single isomer, unassigned) [Example 224] were, in that order, 58 nM, 91.3 nM, 2290 nM and no less than 5000 nM.
Take `C=CC(=O)N1CC[C@H]2C[C@@H]1CN2c1ccc2ncnc(Nc3ccc(Oc4ccn5ncnc5c4)c(Cl)c3F)c2n1` [Example 436]: the IC50 is 36.3 nM in experiment [1] (ErbB2 WT enzyme assay), 459 nM in experiment [2] (setting [6]), 1920 nM in experiment [3] (EGFR enzyme assay) and no less than 5000 nM in experiment [4] (setting [7]).
In the case of `C=CC(=O)N1C[C@H]2CC[C@@H](C1)[C@@H]2c1ccc2ncnc(Nc3ccc(Oc4ccn5ncnc5c4)c(C)c3)c2n1` [Example 221, 1-((1R,5S,8r)-8-(4-((4-([1,2,4]triazolo[1,5-a]pyridin-7-yloxy)-3-methylphenyl)amino)pyrido[3,2-d]pyrimidin-6-yl)-3-azabicyclo[3.2.1]octan-3-yl)prop-2-en-1-one], the IC50 in experiment [1] (ErbB2 WT enzyme) is 28.5 nM; in experiment [2] (ErbB2 YVMA phosphorylation), 78 nM; in experiment [3] (EGFR enzyme), 2690 nM; in experiment [4] (setting [5]), no less than 5000 nM.
As for `C=CC(=O)N1CCN(c2ccc3ncnc(Nc4ccc(Oc5ccn6ncnc6c5)c(C)c4F)c3n2)CC12CCC2` [Example 308], the IC50 in experiment [1] (ErbB2 WT enzyme assay) is 15.5 nM; in experiment [2] (setting [6]) it was 8.4 nM; in experiment [3] (EGFR enzyme assay) it was 432 nM; in experiment [4] (setting [7]) it was 110 nM.
Regarding `C=CC(=O)N1CCN(c2ccc3ncnc(Nc4ccc(Oc5ccn6ncnc6c5)c(C)c4F)c3n2)C[C@H]1C` [Example 89, (R)-1-(4-(4-((4-([1,2,4]triazolo[1,5-a]pyridin-7-yloxy)-2-fluoro-3-methylphenyl)amino)pyrido[3,2-d]pyrimidin-6-yl)-2-methylpiperazin-1-yl)prop-2-en-1-one], the IC50 stood at 76.5 nM in experiment [1] (ErbB2 WT enzyme), 10.9 nM in experiment [2] (ErbB2 YVMA phosphorylation), 3630 nM in experiment [3] (EGFR enzyme) and 449 nM in experiment [4] (setting [5]).
Take `CC#CC(=O)N1CC[C@@H]2C[C@H]1CN2c1ccc2ncnc(Nc3cc(Cl)c(Oc4ccn5ncnc5c4)cc3F)c2n1` [Example 315]: the IC50 in experiment [1] (ErbB2 WT enzyme assay) was 119 nM; in experiment [2] (setting [6]) it was 68.8 nM; in experiment [3] (EGFR enzyme assay), no less than 10000 nM; in experiment [4] (setting [7]), no less than 5000 nM.
For the compound `C=CC(=O)N1[C@H]2CC[C@@H]1[C@H](c1ccc3ncnc(Nc4ccc(Oc5ccn6ncnc6c5)c(C)c4F)c3n1)CC2` [Example 429], the IC50 in experiment [1] (ErbB2 WT enzyme assay) turned out to be 28.4 nM; in experiment [2] (setting [6]), 13.8 nM; in experiment [3] (EGFR enzyme assay) it was 520 nM; in experiment [4] (setting [7]), 447 nM.
As for `C=CC(=O)N1CCN(c2ccc3ncnc(Nc4ccc(Oc5ccn6ncnc6c5)c(C)c4F)c3n2)C[C@@H]1C1CCC1` (racemic) [Example 305], the half-inhibitory concentration (IC50) was 127 nM in experiment [1] (ErbB2 WT enzyme assay), 66.1 nM in experiment [2] (setting [6]), 7970 nM in experiment [3] (EGFR enzyme assay) and no less than 5000 nM in experiment [4] (setting [7]).
The like results for `C=C(C)C(=O)N1CCN(c2ccc3ncnc(Nc4ccc(Oc5ccn6ncnc6c5)c(C)c4F)c3n2)CC1(C)C` [Example 341] were, in that order, 113 nM, 529 nM, no less than 10000 nM and no less than 5000 nM.
The matching figures for `C=CC(=O)N1C[C@@H]2C[C@H]1CC[C@@H]2c1ccc2ncnc(Nc3ccc(Oc4ccc5c(c4)ncn5C)c(C)c3F)c2n1` [Example 379]: 29.2 nM, 36.5 nM, 4210 nM and no less than 5000 nM.
In the case of `C=CC(=O)N1C[C@H]2CC[C@@H]1[C@@H](c1ccc3ncnc(Nc4ccc(Oc5cnc6c(c5)ncn6C)c(C)c4F)c3n1)C2` [Example 427], the half-inhibitory concentration (IC50) was 104 nM in experiment [1] (ErbB2 WT enzyme assay), 56.4 nM in experiment [2] (setting [6]), 2990 nM in experiment [3] (EGFR enzyme assay) and no less than 5000 nM in experiment [4] (setting [7]).
Take `C=CC(=O)N1CCN(c2ccc3ncnc(Nc4ccc(Oc5ccn6ncnc6c5)c(C(F)(F)F)c4)c3n2)CC1(C)C` [Example 242, 1-(4-(4-((4-([1,2,4]triazolo[1,5-a]pyridin-7-yloxy)-3-(trifluoromethyl)phenyl)amino)pyrido[3,2-d]pyrimidin-6-yl)-2,2-dimethylpiperazin-1-yl)prop-2-en-1-one]: the half-maximal inhibitory concentration (IC50) in experiment [1] (ErbB2 WT enzyme) came out at 184 nM; in experiment [2] (ErbB2 YVMA phosphorylation), 95.6 nM; in experiment [3] (EGFR enzyme) it was 4430 nM; in experiment [4] (setting [5]), 3460 nM.
In the case of `C=CC(=O)N1CCN(c2nc3c(Nc4ccc(Oc5ccc6cn(C)nc6c5)c(C)c4)ncnc3cc2OC)CC1` [Example 158, 1-(4-(7-methoxy-4-((3-methyl-4-((2-methyl-2H-indazol-6-yl)oxy)phenyl)amino)pyrido[3,2-d]pyrimidin-6-yl)piperazin-1-yl)prop-2-en-1-one], the half-maximal inhibitory concentration (IC50) in experiment [1] (ErbB2 WT enzyme) came out at 39.1 nM; in experiment [2] (ErbB2 YVMA phosphorylation), 16.5 nM; in experiment [3] (EGFR enzyme) it was 321 nM; in experiment [4] (setting [5]) it was 366 nM.
As for `C=CC(=O)N1[C@@H](C)CN(c2ccc3ncnc(Nc4ccc(Oc5ccc6c(c5)ncn6C)c(C)c4F)c3n2)C[C@@H]1C` [Example 256], the half-inhibitory concentration (IC50) in experiment [1] (ErbB2 WT enzyme assay) is 57.2 nM; in experiment [2] (setting [6]), 66.9 nM; in experiment [3] (EGFR enzyme assay), no less than 10000 nM; in experiment [4] (setting [7]) it was no less than 5000 nM.
Consider `C=CC(=O)N1CCN(c2ccc3ncnc(Nc4ccc(Oc5ccc6c(c5)ncn6C)c(C)c4F)c3n2)CCC1(C)C` [Example 68, 1-(4-(4-((2-fluoro-3-methyl-4-((1-methyl-1H-benzo[d]imidazol-5-yl)oxy)phenyl)amino)pyrido[3,2-d]pyrimidin-6-yl)-7,7-dimethyl-1,4-diazepan-1-yl)prop-2-en-1-one], for which the concentration for half-maximal inhibition (IC50) in experiment [1] (ErbB2 WT enzyme) is 664 nM; in experiment [2] (ErbB2 YVMA phosphorylation), 73.8 nM; in experiment [3] (EGFR enzyme), no less than 10000 nM; in experiment [4] (setting [5]), no less than 5000 nM.
For `CC#CC(=O)N1CCN(c2ccc3ncnc(Nc4ccc(Oc5ccn6ncnc6c5)c(C)c4F)c3n2)C[C@@H]1COC` [Example 180, (R)-1-(4-(4-((4-([1,2,4]triazolo[1,5-a]pyridin-7-yloxy)-2-fluoro-3-methylphenyl)amino)pyrido[3,2-d]pyrimidin-6-yl)-2-(methoxymethyl)piperazin-1-yl)but-2-yn-1-one], the IC50 in experiment [1] (ErbB2 WT enzyme) is 314 nM; in experiment [2] (ErbB2 YVMA phosphorylation) it was 73.4 nM; in experiment [3] (EGFR enzyme), no less than 10000 nM; in experiment [4] (setting [5]) it was no less than 5000 nM.
With `C=CC(=O)N1CCN(c2ccc3ncnc(Nc4cc(C)c(Oc5ccn6ncnc6c5)cc4F)c3n2)C[C@@H]1C(F)F` (racemic) [Example 312], the 50% inhibitory concentration (IC50) was 23.8 nM in experiment [1] (ErbB2 WT enzyme assay), 13.4 nM in experiment [2] (setting [6]), 892 nM in experiment [3] (EGFR enzyme assay) and 312 nM in experiment [4] (setting [7]).
Turning to `C=CC(=O)N1[C@@H]2CC[C@H]1CC(c1ccc3ncnc(Nc4cc(C)c(Oc5ccn6ncnc6c5)cc4F)c3n1)C2` (stereo partly drawn) [Example 194, 1-((1R,5S)-3-(4-((4-([1,2,4]triazolo[1,5-a]pyridin-7-yloxy)-2-fluoro-5-methylphenyl)amino)pyrido[3,2-d]pyrimidin-6-yl)-8-azabicyclo[3.2.1]octan-8-yl)prop-2-en-1-one], the half-inhibitory concentration (IC50) in experiment [1] (ErbB2 WT enzyme) is 171 nM; in experiment [2] (ErbB2 YVMA phosphorylation), 33.9 nM; in experiment [3] (EGFR enzyme), 5800 nM; in experiment [4] (setting [5]), 2780 nM.
Take `C=CC(=O)N1CCN(c2ccc3ncnc(Nc4ccc(Oc5ccc6c(c5)ncn6C)c(C)c4F)c3n2)C[C@H]1C(C)C` [Example 253]: the half-maximal inhibitory concentration (IC50) is 162 nM in experiment [1] (ErbB2 WT enzyme assay), 31 nM in experiment [2] (setting [6]), no less than 10000 nM in experiment [3] (EGFR enzyme assay) and no less than 5000 nM in experiment [4] (setting [7]).
Turning to `C=CC(=O)N1C[C@@H]2C[C@H]1CC[C@@H]2c1ccc2ncnc(Nc3cc(C)c(Oc4ccc5c(c4)ncn5C)cc3F)c2n1` [Example 378], the half-inhibitory concentration (IC50) in experiment [1] (ErbB2 WT enzyme assay) was 54 nM; in experiment [2] (setting [6]) it was 66.3 nM; in experiment [3] (EGFR enzyme assay), 4560 nM; in experiment [4] (setting [7]), no less than 5000 nM.
